Legend:
Assay type in all cases: in vivo
[1] = tested on: ryegrass, Italian (Italian ryegrass, Lolium multiflorum); assay: Test A preemergence; details: Lolium multiflorum, pre-emergence, 240 h, 0 to 100 scale where 0 is no effect and 100 is complete control, read-out: Ryegrass, Italian plant response rating; for pest or weed control at 31 g/ha: 31 g ai/ha, Preemergence; for pest or weed control at 125 g/ha: 125 g ai/ha, preemergence, visual injury rating, approximately 10 d
How it was run: (§1)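 Visual injury, scored on a 0–100 scale relative to untreated controls, was recorded about 10 d after application. Treatments were a preemergence soil spray over planted seeds or a postemergence spray on plants at the one- to two-leaf stage, 2 to 10 cm tall, all in loam soil–sand blend in the greenhouse.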

[2] = tested on: pigweed (Amaranthus retroflexus); assay: Test A preemergence; details: Amaranthus retroflexus, pre-emergence, 240 h, 0 to 100 scale where 0 is no effect and 100 is complete control, read-out: Pigweed plant response rating; for pest or weed control at 31 g/ha: 31 g ai/ha, Preemergence; for pest or weed control at 125 g/ha: 125 g ai/ha, preemergence, visual injury rating, approximately 10 d
[3] = tested on: ragweed (common ragweed, Ambrosia elatior); assay: Test A preemergence; details: Ambrosia artemisiifolia, pre-emergence, 240 h, 0 to 100 scale where 0 is no effect and 100 is complete control, read-out: Ragweed plant response rating; for pest or weed control at 31 g/ha: 31 g ai/ha, Preemergence; for pest or weed control at 125 g/ha: 125 g ai/ha, preemergence, visual injury rating, approximately 10 d
How it was run: as §1

[4] = tested on: giant foxtail (Setaria faberii); assay: Test A preemergence; details: Setaria faberi, pre-emergence, 240 h, 0 to 100 scale where 0 is no effect and 100 is complete control, read-out: Foxtail, Giant plant response rating; for pest or weed control at 31 g/ha: 31 g ai/ha, Preemergence; for pest or weed control at 125 g/ha: 125 g ai/ha, preemergence, visual injury rating, approximately 10 d
How it was run: as §1

[5] = tested on: Kochia (Kochia scoparia); assay: Test A preemergence; details: Bassia scoparia, pre-emergence, 240 h, 0 to 100 scale where 0 is no effect and 100 is complete control, read-out: Kochia plant response rating; for pest or weed control at 31 g/ha: 31 g ai/ha, Preemergence; for pest or weed control at 125 g/ha: 125 g ai/ha, preemergence, visual injury rating, approximately 10 d
How it was run: as §1

[6] = tested on: barnyardgrass (Echinochloa crus-galli); assay: Test A preemergence; details: Echinochloa crus-galli, pre-emergence, 240 h, 0 to 100 scale where 0 is no effect and 100 is complete control, read-out: Barnyardgrass plant response rating; for pest or weed control at 31 g/ha: 31 g ai/ha, Preemergence; for pest or weed control at 125 g/ha: 125 g ai/ha, preemergence, visual injury rating, approximately 10 d
How it was run: as §1

[7] = tested on: ryegrass, Italian (Italian ryegrass, Lolium multiflorum); assay: Test A postemergence; details: Lolium multiflorum, post-emergence, 240 h, Postemergence, read-out: Ryegrass, Italian plant response rating (0 to 100 scale); for pest or weed control at 125 g/ha: 125 g ai/ha, visual rating about 10 d after treatment; for pest or weed control at 31 g/ha: 31 g ai/ha, 0 is no effect, 100 is complete control
How it was run: as §1

[8] = tested on: pigweed (Amaranthus retroflexus); assay: Test A postemergence; details: Amaranthus retroflexus, post-emergence, 240 h, Postemergence, read-out: Pigweed plant response rating (0 to 100 scale); for pest or weed control at 125 g/ha: 125 g ai/ha, visual rating about 10 d after treatment; for pest or weed control at 31 g/ha: 31 g ai/ha, 0 is no effect, 100 is complete control
How it was run: as §1

[9] = tested on: ragweed (common ragweed, Ambrosia elatior); assay: Test A postemergence; details: Ambrosia artemisiifolia, post-emergence, 240 h, Postemergence, read-out: Ragweed plant response rating (0 to 100 scale); for pest or weed control at 125 g/ha: 125 g ai/ha, visual rating about 10 d after treatment; for pest or weed control at 31 g/ha: 31 g ai/ha, 0 is no effect, 100 is complete control
How it was run: as §1

[10] = tested on: blackgrass (Alopecurus myosuroides); assay: Test A postemergence; details: Alopecurus myosuroides, post-emergence, 240 h, Postemergence, read-out: Blackgrass plant response rating (0 to 100 scale); for pest or weed control at 125 g/ha: 125 g ai/ha, visual rating about 10 d after treatment; for pest or weed control at 31 g/ha: 31 g ai/ha, 0 is no effect, 100 is complete control
How it was run: as §1

[11] = tested on: giant foxtail (Setaria faberii); assay: Test A postemergence; details: Setaria faberi, post-emergence, 240 h, Postemergence, read-out: Foxtail, Giant plant response rating (0 to 100 scale); for pest or weed control at 125 g/ha: 125 g ai/ha, visual rating about 10 d after treatment; for pest or weed control at 31 g/ha: 31 g ai/ha, 0 is no effect, 100 is complete control
How it was run: as §1

[12] = tested on: Kochia (Kochia scoparia); assay: Test A postemergence; details: Bassia scoparia, post-emergence, 240 h, Postemergence, read-out: Kochia plant response rating (0 to 100 scale); for pest or weed control at 125 g/ha: 125 g ai/ha, visual rating about 10 d after treatment; for pest or weed control at 31 g/ha: 31 g ai/ha, 0 is no effect, 100 is complete control
How it was run: as §1

[13] = tested on: wheat (Triticum aestivum); assay: Test A postemergence; details: Triticum aestivum, post-emergence, 240 h, Postemergence, read-out: Wheat plant response rating (0 to 100 scale); for plant injury at 125 g/ha: 125 g ai/ha, visual rating about 10 d after treatment; for plant injury at 31 g/ha: 31 g ai/ha, 0 is no effect, 100 is complete control
How it was run: as §1

[14] = tested on: barnyardgrass (Echinochloa crus-galli); assay: Test A postemergence; details: Echinochloa crus-galli, post-emergence, 240 h, Postemergence; for pest or weed control at 125 g/ha: 125 g ai/ha, visual rating about 10 d after treatment, read-out: Barnyardgrass plant response rating (0 to 100 scale, 0 no effect, 100 complete control); for pest or weed control at 31 g/ha: 31 g ai/ha, 0 is no effect, 100 is complete control, read-out: Barnyardgrass plant response rating (0 to 100 scale)
How it was run: as §1

[15] = tested on: corn (Zea mays); assay: Test A postemergence; details: Zea mays, post-emergence, 240 h, Postemergence, read-out: Corn plant response rating (0 to 100 scale); for plant injury at 125 g/ha: 125 g ai/ha, visual rating about 10 d after treatment; for plant injury at 31 g/ha: 31 g ai/ha, 0 is no effect, 100 is complete control
How it was run: as §1

[16] = tested on: Galium (catchweed bedstraw, Galium aparine); assay: Test A postemergence; details: Galium, post-emergence, 240 h, Postemergence, read-out: Galium plant response rating (0 to 100 scale); for pest or weed control at 125 g/ha: 125 g ai/ha, visual rating about 10 d after treatment; for pest or weed control at 31 g/ha: 31 g ai/ha, 0 is no effect, 100 is complete control
How it was run: as §1

[17] = tested on: rice (Oryra sativa); assay: Test B flooded paddy test; details: Oryza sativa, 250 g ai/ha, Flood; 0 to 100 scale where 0 is no effect and 100 is complete control; read-out: Rice plant response rating
How it was run: (§2)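 Percent control, visually estimated after 13–15 d in the greenhouse on a 0–100 basis, compares treated pots with untreated ones; compound was put into paddy water 3 cm above the soil when plants had two leaves.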

[18] = tested on: sedge, umbrella (small-flower umbrella sedge, Cyperus difformis); assay: Test B flooded paddy test; details: Cyperus difformis, 250 g ai/ha, Flood; 0 to 100 scale where 0 is no effect and 100 is complete control; read-out: Sedge, Umbrella plant response rating
How it was run: as §2

[19] = tested on: barnyardgrass (Echinochloa crus-galli); assay: Test B flooded paddy test; details: Echinochloa crus-galli, 250 g ai/ha, Flood; 0 to 100 scale where 0 is no effect and 100 is complete control; read-out: Barnyardgrass plant response rating
How it was run: as §2

[20] = tested on: ducksalad (Heteranthera limosa); assay: Test B flooded paddy test; details: Heteranthera limosa, 250 g ai/ha, Flood; 0 to 100 scale where 0 is no effect and 100 is complete control; read-out: Ducksalad plant response rating
How it was run: as §2

CN1C[C@H](c2csc3c2CCOC3)[C@@H](C(=O)Nc2ccccc2F)C1=O [Compound 1267]
pest or weed control at 31 g/ha [1]: 0%
pest or weed control at 125 g/ha [1]: 0%
pest or weed control at 31 g/ha [2]: 0%
pest or weed control at 125 g/ha [2]: 0%
pest or weed control at 31 g/ha [3]: 0%
pest or weed control at 125 g/ha [3]: 0%
pest or weed control at 31 g/ha [4]: 90%
pest or weed control at 125 g/ha [4]: 90%
pest or weed control at 31 g/ha [5]: 0%
pest or weed control at 125 g/ha [5]: 0%
pest or weed control at 31 g/ha [6]: 90%
pest or weed control at 125 g/ha [6]: 90%
pest or weed control at 125 g/ha [7]: 0%
pest or weed control at 31 g/ha [7]: 0%
pest or weed control at 125 g/ha [8]: 0%
pest or weed control at 31 g/ha [8]: 0%
pest or weed control at 125 g/ha [9]: 0%
pest or weed control at 31 g/ha [9]: 0%
pest or weed control at 125 g/ha [10]: 0%
pest or weed control at 31 g/ha [10]: 0%
pest or weed control at 125 g/ha [11]: 90%
pest or weed control at 31 g/ha [11]: 60%
pest or weed control at 125 g/ha [12]: 0%
pest or weed control at 31 g/ha [12]: 0%
plant injury at 125 g/ha [13]: 0%
plant injury at 31 g/ha [13]: 0%
pest or weed control at 125 g/ha [14]: 90%
pest or weed control at 31 g/ha [14]: 60%
plant injury at 125 g/ha [15]: 0%
plant injury at 31 g/ha [15]: 0%
pest or weed control at 125 g/ha [16]: 0%
pest or weed control at 31 g/ha [16]: 0%
pest or weed control at 250 g/ha [17]: 0%
pest or weed control at 250 g/ha [18]: 0%
pest or weed control at 250 g/ha [19]: 90%
pest or weed control at 250 g/ha [20]: 90%

CN1C[C@H](c2cc(Cl)cc(Cl)c2)[C@@H](C(=O)Nc2cccc(F)c2F)C1=O [Compound 1270]
pest or weed control at 31 g/ha [1]: 0%
pest or weed control at 125 g/ha [1]: 40%
pest or weed control at 31 g/ha [2]: 0%
pest or weed control at 125 g/ha [2]: 40%
pest or weed control at 31 g/ha [3]: 0%
pest or weed control at 125 g/ha [3]: 30%
pest or weed control at 31 g/ha [4]: 90%
pest or weed control at 125 g/ha [4]: 90%
pest or weed control at 31 g/ha [5]: 40%
pest or weed control at 125 g/ha [5]: 60%
pest or weed control at 31 g/ha [6]: 70%
pest or weed control at 125 g/ha [6]: 90%
pest or weed control at 125 g/ha [7]: 30%
pest or weed control at 31 g/ha [7]: 0%
pest or weed control at 125 g/ha [8]: 60%
pest or weed control at 31 g/ha [8]: 40%
pest or weed control at 125 g/ha [9]: 0%
pest or weed control at 31 g/ha [9]: 0%
pest or weed control at 125 g/ha [10]: 40%
pest or weed control at 31 g/ha [10]: 0%
pest or weed control at 125 g/ha [11]: 80%
pest or weed control at 31 g/ha [11]: 60%
pest or weed control at 125 g/ha [12]: 60%
pest or weed control at 31 g/ha [12]: 0%
plant injury at 125 g/ha [13]: 40%
plant injury at 31 g/ha [13]: 0%
pest or weed control at 125 g/ha [14]: 90%
pest or weed control at 31 g/ha [14]: 90%
plant injury at 125 g/ha [15]: 20%
plant injury at 31 g/ha [15]: 0%
pest or weed control at 125 g/ha [16]: 70%
pest or weed control at 31 g/ha [16]: 60%
pest or weed control at 250 g/ha [17]: 15%
pest or weed control at 250 g/ha [18]: 0%
pest or weed control at 250 g/ha [19]: 60%
pest or weed control at 250 g/ha [20]: 80%

From US12077503B2, “Substituted cyclic amides and their use as herbicides” (FMC CORPORATION, priority 2015, dated 2024)
